What was measured:
Test in all cases: Radioligand binding assay: inhibition of binding of 125I-GnRH-A to GnRH receptors (membranes)
[1] = biological target: T1, mouse GnRH receptors (Mus musculus, UniProt Q01776); conditions: Mouse GnRH receptor; competition with 125I-GnRH-A; Ki calculated from IC50 (Cheng et al.)
T1 construct: expressed in transfected cells; host or cells: HEK 293
T1 sequence (Q01776 1-327): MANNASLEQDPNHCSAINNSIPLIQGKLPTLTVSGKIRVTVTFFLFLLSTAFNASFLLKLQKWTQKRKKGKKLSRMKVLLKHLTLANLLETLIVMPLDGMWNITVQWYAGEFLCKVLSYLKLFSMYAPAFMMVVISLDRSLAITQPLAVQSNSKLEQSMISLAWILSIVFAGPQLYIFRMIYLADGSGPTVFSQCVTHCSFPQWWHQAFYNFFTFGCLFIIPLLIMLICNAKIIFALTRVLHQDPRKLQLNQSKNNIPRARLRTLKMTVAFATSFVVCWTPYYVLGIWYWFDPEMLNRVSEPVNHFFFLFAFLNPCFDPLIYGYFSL
Method: (§1) HEK 293 cells stably transfected with mouse or human GnRH receptors as described above are grown in Dulbecco's high-glucose, modified Eagle's medium (DMEM) supplemented with 0.2% G418, 10% fetal bovine serum (FBS) and 100U/mL penicillin/streptomycin. GH3 cells stably transfected with the rat GnRH receptor (GGH3) were provided by Dr. William Chin (Harvard Medical School, Boston, Mass.). These cells are extensively characterized previously (Kaiser et al., 1997). The cells are grown in low glucose DMEM containing: 100U/mL penicillin/streptomycin, 0.6% G418 and 10% heat-inactivated FBS.
(§2) HEK 293 cells containing mouse or human receptors, or rat pituitaries (Pel Freez Biologicals, Rogers, Ark.) are homogenized in buffer A containing: 50 mM Tris (pH 7.4), 0.32 M sucrose, 2 mM EGTA, 1 mM PMSF, 5 μg/ml aprotinen, 5 μg/ml Pepstatin A, and 1 μg/ml leupeptin. Homogenized cells are centrifuged at 4° C. at 20,000×g for 25 minutes, re-suspended in buffer A and re-centrifuged at 4° C. at 20,000×g for an additional 25 minutes. Total membrane protein was determined with a BCA kit (Pierce, Rockford, Ill.). Membranes are stored at −70° C. at a final membrane protein concentration of approximately 5 mg/ml.
(§3) The radioiodinated agonist analog of GnRH, [des-Gly^10, D-Ala^6]GnRH ethylamide (^125I-GnRH-A), is used as the radioligand. One μg of GnRH-A diluted in 0.5 M phosphate buffer (pH 7.4) is added to an lodogen®-coated borosilicate glass tube (Pierce, Rockford, Ill.) containing 35 μl of 0.05 M phosphate buffer (pH 7.4-7.6) and 1 mCi of Na[^125I]. The reaction mixture is vortexed and incubated for 1 minute at room temperature. After one minute, the mixture is vortexed and allowed to incubate for an additional minute. 2 ml of 0.5 M acetic acid/1% BSA is added to the reaction tube and the mixture is added to a C18 Sep-Pak cartridge. The cartridge is washed with subsequent washes of 5 ml H2O and 5 ml 0.5 M acetic acid and then eluted with 5×1 ml of 60%CH3CN/40% 0.5 M acetic acid. The eluate is diluted with 3× volume of HPLC buffer A (0.1% TFA in H2O) and loaded onto a C18 column. The iodinated product is eluted over 20-25 min with a gradient of 25-100% CH3CN containing 0.1% TFA. The radioactive fractions (750 μl/fraction) are collected into clean polypropylene tubes containing 100 μl of 10% BSA. Fractions are assessed for biological activity by radiolig and binding. Specific activity of the radioligand was approximately 2200 Ci/mmol.
(§4) Membranes are diluted to 0.01-0.5 mg/ml (depending upon the species of receptor) with assay buffer containing 50 mM HEPES (pH 7.4), 1 mM EDTA, 2.5 mM MgCl2, and 0.1% BSA. Membranes (diluted to utilize similar receptor numbers between assays) are incubated with approximately 0.04-0.06 nM ^125I-GnRH-A in the presence or absence of competing agents (0.1-10,000 nM) in a total volume of 200 μl in 96-well polypropylene plates for 1 hour at room temperature. Assays are stopped by rapid filtration onto 96-well GF/C filters soaked in 0.1% polyethylenimine (PEI) utilizing a Packard 96-well cell harvester. Filters are washed three times with ice-cold PBS (50 mM NaPO4, 0.9% NaCl, 2 mM MgCl2, and 0.02% NaN3, pH 7.4). 35 μl of scintillation cocktail is added to each filter well and filters are counted on a Packard Topcount. Control dose-response curves are generated to GnRH (0.1 nM-100 nM) in each competition binding experiment. Ki values were calculated from IC50 values according to Cheng et al., Biochemical Pharmacol. 22: 3099-3108, 1973. [formula]

[2] = biological target: T2, human GnRH receptors (Homo sapiens, UniProt P30968); conditions: Human GnRH receptor; competition with 125I-GnRH-A; Ki calculated from IC50 (Cheng et al.)
T2 construct: expressed in transfected cells; host or cells: HEK 293
T2 sequence (P30968 1-328): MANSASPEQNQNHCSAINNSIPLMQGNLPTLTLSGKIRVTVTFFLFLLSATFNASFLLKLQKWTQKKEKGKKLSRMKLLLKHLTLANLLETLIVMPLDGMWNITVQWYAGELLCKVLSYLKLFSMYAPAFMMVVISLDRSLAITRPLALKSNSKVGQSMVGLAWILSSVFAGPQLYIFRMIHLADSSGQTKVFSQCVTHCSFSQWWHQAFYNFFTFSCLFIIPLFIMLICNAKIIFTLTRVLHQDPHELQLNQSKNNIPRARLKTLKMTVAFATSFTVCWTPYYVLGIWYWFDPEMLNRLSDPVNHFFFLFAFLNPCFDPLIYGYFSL
Method: as §1, §2, §3, §4

[3] = biological target: T3, rat GnRH receptor (Rattus norvegicus, UniProt P30969); conditions: competition with 125I-GnRH-A, Ki calculated from IC50 (Cheng et al.)
T3 construct: rat pituitaries (Pel Freez Biologicals, Rogers, Ark.) are homogenized in buffer A; tissue Pel Freez Biologicals; host or cells: rat pituitaries
T3 sequence (P30969 1-327): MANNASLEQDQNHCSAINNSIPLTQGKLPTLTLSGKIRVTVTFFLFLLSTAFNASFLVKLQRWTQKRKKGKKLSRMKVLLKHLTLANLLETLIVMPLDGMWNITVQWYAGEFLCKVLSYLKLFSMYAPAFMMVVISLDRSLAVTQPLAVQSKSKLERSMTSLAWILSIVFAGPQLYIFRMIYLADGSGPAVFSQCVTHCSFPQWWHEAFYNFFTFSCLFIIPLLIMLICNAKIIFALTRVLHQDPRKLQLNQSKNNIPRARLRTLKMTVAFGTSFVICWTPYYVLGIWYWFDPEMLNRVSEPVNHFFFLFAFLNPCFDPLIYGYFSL
Method: as §1, §2, §3, §4

| Structure (SMILES) | Ki [1] | Ki [2] | Ki [3] |
| --- | --- | --- | --- |
| Cc1sc2c(c1Cc1ccc(C(=O)NNc3cc(C)c4c(C)nn(C)c4n3)o1)C(C)(C)CCC2(C)C [Example J23] | 0.28 µM | 0.14 µM | 0.66 µM |
| COc1c(C(C)C)cc(Cl)c(C)c1Cc1ccc(C(=O)NNc2cc(C)c3c(C)nn(C)c3n2)o1 [Example J24, 5-(3-chloro-5-isopropyl-6-methoxy-2-methylbenzyl)-N′-(1,3,4-trimethyl-1H-pyrazolo[3,4-b]pyridin-6-yl)-2-furohydrazide] | 0.4 µM | 0.13 µM | 1.13 µM |
| Cc1cc(NNC(=O)c2ccc(Oc3cc4c(cc3Cl)N(C)CCC4(C)C)o2)nc2c1c(C)nn2C [Example I27, 5-(7-Chloro-1,4,4-trimethyl-1,2,3,4-tetrahydro-quinolin-6-yloxy)-furan-2-carboxylic acid N′-(1,3,4-trimethyl-1H-pyrazolo[3,4-b]pyridin-6-yl)-hydrazide] | 0.122 µM | 0.101 µM | 0.37 µM |
| Cc1cc(C)c(C)c(Cc2ccc(C(=O)NNc3cc(C)c4c(C)nn(C)c4n3)o2)c1C [Example J12, 5-(2,3,5,6-Tetramethylbenzyl)-N′-(1,3,4-trimethyl-1H-pyrazolo[3,4-b]pyridin-6-yl)-2-furohydrazide] | 0.85 µM | 0.26 µM | 1.2 µM |
| Cc1ccc(C2CCCCC2)cc1Cc1ccc(C(=O)NNc2cc(C)c3c(C)nn(C)c3n2)o1 [Example J16, 5-(5-cyclohexyl-2-methylbenzyl)-N′-(1,3,4-trimethyl-1H-pyrazolo[3,4-b]pyridin-6-yl)-2-furohydrazide] | 0.233 µM | 0.097 µM | 0.122 µM |
| Cc1cc2c(cc1Cc1ccc(C(=O)NNc3cc(C)c4c(C)nn(C)c4n3)o1)C(C)(C)CC2(C)C [Example J15, 5-[(1,1,3,3,6-pentamethyl-2,3-dihydro-1H-inden-5-yl)methyl]-N-(1,3,4-trimethyl-1H-pyrazdo[3,4-b]Pyridin-6-yl)-2-furohydrazide] | 0.0033 µM | 0.0009 µM | 0.002 µM |
| Cc1cc2c(c(C)c1Oc1ccc(C(=O)NNc3cc(C)c4c(C)nn(C)c4n3)o1)C(C)(C)CCC2(C)C [Example I9, 5-(1,3,5,5,8,8-Hexamethyl-5,6,7,8-tetrahydro-naphthalen-2-yloxy)-furan-2-carboxylic acid N′-(1,3,4-trimethyl-1H-pyrazolo[3,4-b]pyridin-6-yl)-hydrazide] | 0.0021 µM | 0.0012 µM | 0.0038 µM |
| Cc1cc2c(c(Br)c1Oc1ccc(C(=O)NNc3cc(C)c4c(C)nn(C)c4n3)o1)C(C)(C)CCC2 [Example I11, 5-(1-Bromo-3,8,8-trimethyl-5,6,7,8-tetrahydro-naphthalen-2-yloxy)-furan-2-carboxylic acid N′-(1,3,4-trimethyl-1H-pyrazolo[3,4-b]pyridin-6-yl)-hydrazide] | 0.25 µM | 0.17 µM | 0.79 µM |
| Cc1cc2c(cc1Oc1oc(C(=O)NNc3cc(C)c4c(C)nn(C)c4n3)cc1Br)C(C)(C)CCC2(C)C [Example F3, 4-Bromo-5-[(3,5,5,8,8-pentamethyl-5,6,7,8-tetrahydro-2-naphthalenyl)oxy]-N′-[1,3,4-trimethyl-1H-pyrazolo[3,4-b]pyridin-6-yl)-2-furohydrazide] | 0.136 µM | 0.08 µM | 0.535 µM |
| Cc1ccc(C(C)(C)C)cc1Cc1ccc(C(=O)NNc2ccc3ccccc3n2)o1 [Example B3, 5-[5-(tert-butyl)-2-methylbenzyl]-N′-(2-quinolinyl)-2-furohydrazide] | 0.084 µM | 0.095 µM | 0.065 µM |
| COc1cc2c(c(C)c1Oc1ccc(C(=O)NNc3cc(C)c4c(C)nn(C)c4n3)o1)C(C)(C)CCC2(C)C [Example I25, 5-(3-Methoxy-1,5,5,8,8-pentamethyl-5,6,7,8-tetrahydro-naphthalen-2-yloxy)-furan-2-carboxylic acid N′-(1,3,4-trimethyl-1H-pyrazolo[3,4-b]pyridin-6-yl)-hydrazide] | 0.038 µM | 0.031 µM | 0.059 µM |
| Cc1cc(NNC(=O)c2ccc(Oc3cc(C(C)(C)C)ccc3Br)o2)nc2c1c(C)nn2C [Example I6, 5-(2-Bromo-5-tert-butyl-phenoxy)-furan-2-carboxylic acid N′-(1,3,4-trimethyl-1H-pyrazolo[3,4-b]pyridin-6-yl)-hydrazide] | 0.061 µM | 0.05 µM | 0.079 µM |
| Cc1cc2c(cc1Oc1ccc(C(=O)NNc3cc(C)c4c(C)nn(C)c4n3)o1)C(C)(C)CC2 [Example I7, 5-(3,3,6-Trimethyl-indan-5-yloxy)-furan-2-carboxylic acid N′-(1,3,4-trimethyl-1H-pyrazolo[3,4-b]pyridin-6-yl)-hydrazide] | 0.011 µM | 0.0028 µM | 0.017 µM |
| Cc1ccc(C(C)(C)C)cc1Oc1ccc(C(=O)NNc2cc(C)c3c(C)nn(C)c3n2)o1 [Example I19, 5-(5-tert-Butyl-2-methyl-phenoxy)-furan-2-carboxylic acid N′-(1,3,4-trimethyl-1H-pyrazolo[3,4-b]pyridin-6-yl)-hydrazide] | 0.044 µM | 0.017 µM | 0.039 µM |
| Cc1cc(NNC(=O)c2ccc(Oc3cc(C(C)(C)C)c(Br)cc3Br)o2)nc2c1c(C)nn2C [Example I12, 5-(2,4-Dibromo-5-tert-butyl-phenoxy)-furan-2-carboxylic acid N′-(1,3,4-trimethyl-1H-pyrazolo[3,4-b]pyridin-6-yl)-hydrazide] | 0.26 µM | 0.165 µM | 1.16 µM |
